Legend:
Progesterone receptor = molecular target: T1, Progesterone receptor (Oryctolagus cuniculus, UniProt P06186); assay: Receptor binding affinity, progesterone receptor (competitive binding, 3H-ORG 2058); settings: Progesterone = 100%; uterus cytosol of estradiol-primed rabbit
T1 construct: Uterus cytosol of the estradiol-primed rabbit; from tissue; host or cells: uterus cytosol of estradiol-primed rabbit
T1 sequence (P06186 1-930): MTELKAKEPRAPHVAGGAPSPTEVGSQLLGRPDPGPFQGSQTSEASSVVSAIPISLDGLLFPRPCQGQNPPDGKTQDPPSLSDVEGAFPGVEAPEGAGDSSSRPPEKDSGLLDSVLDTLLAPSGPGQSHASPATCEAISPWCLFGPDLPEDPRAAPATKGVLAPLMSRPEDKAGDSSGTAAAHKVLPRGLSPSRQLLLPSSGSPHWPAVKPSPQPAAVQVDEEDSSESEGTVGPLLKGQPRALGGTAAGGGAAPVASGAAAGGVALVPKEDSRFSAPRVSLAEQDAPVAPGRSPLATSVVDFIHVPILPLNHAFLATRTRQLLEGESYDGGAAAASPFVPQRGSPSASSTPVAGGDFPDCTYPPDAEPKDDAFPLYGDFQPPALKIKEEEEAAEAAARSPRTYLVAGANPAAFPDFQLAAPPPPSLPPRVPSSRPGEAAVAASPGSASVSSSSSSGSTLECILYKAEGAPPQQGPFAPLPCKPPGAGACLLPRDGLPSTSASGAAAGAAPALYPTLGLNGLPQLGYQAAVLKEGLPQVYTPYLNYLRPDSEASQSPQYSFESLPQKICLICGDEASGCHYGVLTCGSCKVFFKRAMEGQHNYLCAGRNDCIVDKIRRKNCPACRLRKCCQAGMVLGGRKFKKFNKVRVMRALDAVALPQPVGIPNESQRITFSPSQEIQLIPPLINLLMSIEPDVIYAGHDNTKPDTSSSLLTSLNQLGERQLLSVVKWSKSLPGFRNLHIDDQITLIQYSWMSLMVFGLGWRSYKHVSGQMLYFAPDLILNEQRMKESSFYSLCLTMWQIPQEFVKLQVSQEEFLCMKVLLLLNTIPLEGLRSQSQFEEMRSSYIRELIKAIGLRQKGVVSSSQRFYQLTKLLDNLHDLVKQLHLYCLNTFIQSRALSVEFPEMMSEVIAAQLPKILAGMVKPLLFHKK
Experimental: (§1) The receptor binding affinity was determined by competitive binding of a specifically binding ^3H-labeled hormone (tracer) and the compound to be tested on receptors in the cytosol from animal target organs. In this case, receptor saturation and reaction equilibrium were sought.
(§2) The tracers and increasing concentrations of the compound to be tested (competitor) were co-incubated with the receptor-containing cytosol fraction at 0-4° C. over 18 hours. After separation of the unbonded tracer with carbon-dextran suspension, the receptor-bonded tracer portion was measured for each concentration, and the IC50 was determined from the concentration sequence. As a quotient of the IC50 values of the reference substance and the compound to be tested (×100%), the relative molar binding affinity (RBA) was calculated (RBA of the reference substance=100%).
Uterus cytosol of the estradiol-primed rabbit; homogenized in TED buffer (20 mmol of Tris/HCl, pH 7.4; 1 mmol of ethylenediamine tetraacetate, 2 mmol of dithiothreitol) with 250 mmol of saccharose; stored at −30° C. Tracer: ^3H-ORG 2058, 5 nmol; reference substance: progesterone.

Androgen receptor = molecular target: T2, Androgen receptor (Rattus norvegicus, UniProt P15207); assay: Receptor binding affinity, androgen receptor (competitive binding, 3H-metribolone); settings: prostate cytosol of castrated rat; for AR relative molar binding affinity (RBA) a) against RU 1881: reference RU 1881 (metribolone); for AR relative molar binding affinity (RBA) b) against dihydrotestosterone (DHT): reference dihydrotestosterone
T2 construct: Prostate cytosol of the castrated rat; from tissue; host or cells: prostate cytosol of castrated rat
T2 sequence (P15207 1-902): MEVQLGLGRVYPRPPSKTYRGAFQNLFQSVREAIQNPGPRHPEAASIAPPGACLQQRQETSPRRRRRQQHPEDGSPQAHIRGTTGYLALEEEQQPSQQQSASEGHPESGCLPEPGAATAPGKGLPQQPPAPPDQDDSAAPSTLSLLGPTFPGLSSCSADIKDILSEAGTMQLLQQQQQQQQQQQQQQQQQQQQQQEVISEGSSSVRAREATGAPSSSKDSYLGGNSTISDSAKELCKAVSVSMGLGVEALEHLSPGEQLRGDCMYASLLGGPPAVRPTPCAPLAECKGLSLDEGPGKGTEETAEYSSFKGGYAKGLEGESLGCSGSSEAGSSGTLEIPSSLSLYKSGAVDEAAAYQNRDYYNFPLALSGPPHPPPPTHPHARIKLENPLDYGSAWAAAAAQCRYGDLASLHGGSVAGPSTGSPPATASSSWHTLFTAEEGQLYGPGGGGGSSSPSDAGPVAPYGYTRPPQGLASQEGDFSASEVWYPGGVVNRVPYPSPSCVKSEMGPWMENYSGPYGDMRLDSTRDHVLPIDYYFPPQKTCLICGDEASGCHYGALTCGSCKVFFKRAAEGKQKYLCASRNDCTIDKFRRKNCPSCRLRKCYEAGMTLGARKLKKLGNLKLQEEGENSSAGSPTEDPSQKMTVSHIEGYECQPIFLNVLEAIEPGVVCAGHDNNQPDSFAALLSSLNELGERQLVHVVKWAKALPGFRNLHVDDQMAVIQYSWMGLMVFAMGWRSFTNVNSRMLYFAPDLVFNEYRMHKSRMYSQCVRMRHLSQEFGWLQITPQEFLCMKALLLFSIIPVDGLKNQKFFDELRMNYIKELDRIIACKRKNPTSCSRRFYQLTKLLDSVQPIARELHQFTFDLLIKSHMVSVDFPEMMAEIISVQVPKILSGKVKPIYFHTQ
Experimental: as §1, §2
Prostate cytosol of the castrated rat; prostates stored at −30° C.; buffer: TED with 10% glycerol as well as 2 μmol of triamcinolone acetonide. Tracer: ^3H-metribolone 4 nmol; reference substances: metribolone (RU 1881) or 5α-dihydrotestosterone.

Glucocorticoid receptor = molecular target: T3, Glucocorticoid receptor (Rattus norvegicus, UniProt P06536); assay: Receptor binding affinity, glucocorticoid receptor (competitive binding, 3H-dexamethasone); settings: Dexamethasone = 100%; thymus cytosol of adrenalectomized rat
T3 construct: Thymus cytosol of the adrenalectomized rat; from tissue; host or cells: thymus cytosol of adrenalectomized rat
T3 sequence (P06536 1-795): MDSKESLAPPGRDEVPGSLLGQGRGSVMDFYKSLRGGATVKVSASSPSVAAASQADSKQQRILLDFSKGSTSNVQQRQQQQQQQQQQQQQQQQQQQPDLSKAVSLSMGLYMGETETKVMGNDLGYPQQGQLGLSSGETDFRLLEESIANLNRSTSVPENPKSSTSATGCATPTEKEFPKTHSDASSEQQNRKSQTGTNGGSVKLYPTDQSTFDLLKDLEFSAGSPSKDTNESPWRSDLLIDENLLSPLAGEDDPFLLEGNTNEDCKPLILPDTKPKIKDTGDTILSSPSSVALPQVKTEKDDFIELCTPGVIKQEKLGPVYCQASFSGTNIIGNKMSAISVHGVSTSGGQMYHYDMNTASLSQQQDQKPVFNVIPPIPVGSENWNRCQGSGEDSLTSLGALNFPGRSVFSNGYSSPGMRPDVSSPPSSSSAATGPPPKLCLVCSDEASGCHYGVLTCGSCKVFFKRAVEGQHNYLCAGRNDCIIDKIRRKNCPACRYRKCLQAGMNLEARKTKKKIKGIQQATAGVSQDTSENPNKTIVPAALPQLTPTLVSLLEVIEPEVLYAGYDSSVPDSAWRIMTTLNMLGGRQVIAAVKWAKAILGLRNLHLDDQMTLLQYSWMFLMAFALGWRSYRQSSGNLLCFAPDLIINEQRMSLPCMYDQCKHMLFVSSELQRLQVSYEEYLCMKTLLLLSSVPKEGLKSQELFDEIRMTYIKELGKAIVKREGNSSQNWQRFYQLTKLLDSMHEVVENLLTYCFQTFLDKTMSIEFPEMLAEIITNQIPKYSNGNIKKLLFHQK
Experimental: as §1, §2
Thymus cytosol of the adrenalectomized rat, thymi stored at −30° C.; buffer: TED. Tracer: ^3H-Dexamethasone, 20 nmol; reference substance: dexamethasone.

## CCNC(=O)O[C@H]1CC[C@H]2[C@@H]3CCC4=CC(=O)CCC4=C3[C@@H](c3ccc(/C=N/O)cc3)C[C@]12C [Example 4, 4-[17β-(N-Ethylamino)carbonyloxy-3-oxoestra-4,9-dien-11β-yl]benzaldehyde-1(E)-oxime]
Progesterone receptor
  PR relative molar binding affinity (RBA): 13%
Androgen receptor
  AR relative molar binding affinity (RBA) a) against RU 1881: a) 2.9%
  AR relative molar binding affinity (RBA) b) against dihydrotestosterone (DHT): b) 4.5%
Glucocorticoid receptor
  GR relative molar binding affinity (RBA): 11%

## CCNC(=O)O/N=C/c1ccc([C@H]2C[C@@]3(C)[C@@H](CC[C@@]3(O)CO)[C@@H]3CCC4=CC(=O)CCC4=C32)cc1 [Example 20, 4-[17β-Hydroxy-17α-hydroxymethyl-3-oxoestra-4,9-dien-11β-yl]benzaldehyde-1-(E)-[O-(ethylamino)-carbonyl]oxime]
Progesterone receptor
  PR relative molar binding affinity (RBA): 12%
Androgen receptor
  AR relative molar binding affinity (RBA) a) against RU 1881: a) 4%
  AR relative molar binding affinity (RBA) b) against dihydrotestosterone (DHT): b) 7%
Glucocorticoid receptor
  GR relative molar binding affinity (RBA): 5%

## CC(=O)OC1CCC2C3CCC4=CC(=O)CCC4=C3C(c3ccc(C=NO)cc3)CC12C (stereo not drawn) [Example 3, 4-(17β-Acetoxy-3-oxoestra-4,9-dien-11β-yl)benzaldehyde-1-(E)-oxime]
Progesterone receptor
  PR relative molar binding affinity (RBA): 20%
Glucocorticoid receptor
  GR relative molar binding affinity (RBA): 12%

## CC12CC(c3ccc(C=NO)cc3)C3=C4CCC(=O)C=C4CCC3C1C=CC2O (stereo not drawn) [Example 12, 4-(17β-Hydroxy-3-oxoestra-4,9,15-trien-11β-yl)benzaldehyde-1(E)-oxime]
Progesterone receptor
  PR relative molar binding affinity (RBA): 38%
Androgen receptor
  AR relative molar binding affinity (RBA) a) against RU 1881: a) 22%
  AR relative molar binding affinity (RBA) b) against dihydrotestosterone (DHT): b) 34%
Glucocorticoid receptor
  GR relative molar binding affinity (RBA): 5%

## CC(=O)O/N=C/c1ccc([C@H]2C[C@]3(C)[C@@H](OC(C)=O)CC[C@H]3[C@@H]3CCC4=C(Br)C(=O)CCC4=C32)cc1 [Example 14, 4-(17β-Acetoxy-4′-bromo-3-oxoestra-4,9-dien-11β-yl)benzaldehyde-1-(E)-O-acetyloxime]
Progesterone receptor
  PR relative molar binding affinity (RBA): 23%
Androgen receptor
  AR relative molar binding affinity (RBA) a) against RU 1881: a) 6%
  AR relative molar binding affinity (RBA) b) against dihydrotestosterone (DHT): b) 10%
Glucocorticoid receptor
  GR relative molar binding affinity (RBA): 0.3%

## CC12CC(c3ccc(C=NO)cc3)C3=C4CCC(=O)C=C4CCC3C1CCC2(O)CBr (stereo not drawn) [Example 10, 4-(17α-Bromomethyl-17β-hydroxy-3-oxoestra-4,9-dien-11β-yl)benzaldehyde-1(E)-oxime]
Progesterone receptor
  PR relative molar binding affinity (RBA): 21%
Androgen receptor
  AR relative molar binding affinity (RBA) a) against RU 1881: a) 0.6%
  AR relative molar binding affinity (RBA) b) against dihydrotestosterone (DHT): b) 0.9%
Glucocorticoid receptor
  GR relative molar binding affinity (RBA): 3%

## CC12CC(c3ccc(C=NO)cc3)C3=C4CCC(=O)C=C4CCC3C1CCC2OCc1ccccc1 (stereo not drawn) [Example 17, 4-(17β-Benzyloxy-3-oxoestra-4,9-dien-11β-yl)benzaldehyde-1(E)-oxime]
Progesterone receptor
  PR relative molar binding affinity (RBA): 31%
Androgen receptor
  AR relative molar binding affinity (RBA) a) against RU 1881: a) 2%
  AR relative molar binding affinity (RBA) b) against dihydrotestosterone (DHT): b) 3%
Glucocorticoid receptor
  GR relative molar binding affinity (RBA): 8%

## CC12CC(c3ccc(C=NO)cc3)C3=C4CCC(=O)C(Br)=C4CCC3C1CCC2O (stereo not drawn) [Example 19, 4-(4′-Bromo-17β-hydroxy-3-oxoestra-4,9-dien-11β-yl)benzaldehyde-1(E)-oxime]
Progesterone receptor
  PR relative molar binding affinity (RBA): 51%
Androgen receptor
  AR relative molar binding affinity (RBA) a) against RU 1881: a) 9%
  AR relative molar binding affinity (RBA) b) against dihydrotestosterone (DHT): b) 16%
Glucocorticoid receptor
  GR relative molar binding affinity (RBA): 0.5%

## C[C@]12C[C@H](c3ccc(/C=N/O)cc3)C3=C4CCC(=O)C=C4CC[C@H]3[C@@H]1CC[C@@H]2OC(=O)c1ccccc1 [Example 16]
Progesterone receptor
  PR relative molar binding affinity (RBA): 8%
Androgen receptor
  AR relative molar binding affinity (RBA) a) against RU 1881: a) 1.4%
  AR relative molar binding affinity (RBA) b) against dihydrotestosterone (DHT): b) 2.2%
Glucocorticoid receptor
  GR relative molar binding affinity (RBA): 3%

## CC(=O)O[C@H]1CC[C@H]2[C@@H]3CCC4=C(Br)C(=O)CCC4=C3[C@@H](c3ccc(/C=N/O)cc3)C[C@]12C [Example 13, 4-(17β-Acetoxy-4′-bromo-3-oxoestra-4,9-dien-11β-yl)benzaldehyde-1-(E)oxime]
Progesterone receptor
  PR relative molar binding affinity (RBA): 45%
Androgen receptor
  AR relative molar binding affinity (RBA) a) against RU 1881: a) 6%
  AR relative molar binding affinity (RBA) b) against dihydrotestosterone (DHT): b) 10%
Glucocorticoid receptor
  GR relative molar binding affinity (RBA): 0.35%

## CCNC(=O)O/N=C/c1ccc([C@H]2C[C@]3(C)[C@@H](O)CC[C@H]3[C@@H]3CCC4=CC(=O)CCC4=C32)cc1 [Example 11, 4-[17β-Hydroxy-3-oxoestra-4,9-dien-11β-yl]benzaldehyde-1-(E)-[O-(ethylamino)-carbonyl]oxime]
Progesterone receptor
  PR relative molar binding affinity (RBA): 34%
Androgen receptor
  AR relative molar binding affinity (RBA) a) against RU 1881: a) 10%
  AR relative molar binding affinity (RBA) b) against dihydrotestosterone (DHT): b) 15%
Glucocorticoid receptor
  GR relative molar binding affinity (RBA): 10%

From US7550451B2, “Progesterone receptor modulators with increased antigonadotropic activity for female birth control and hormone replacement therapy” (Bayer Schering Pharma AG, priority 2002, dated 2009)
